Source: patent US20170067909A1, “ASSAY-READY RECOMBINANT CELLS TRANSIENTLY OVEREXPRESSING GENES ENCODING DRUG TRANSPORTER PROTEINS AND/OR DRUG METABOLIZING ENZYMES” (Corning Incorporated, priority 2012, published 2017)
Residue numbers refer to the chain shown, from its start. Read-outs that look alike come from different tables or passages of the source.

Legend:
[1] = target: MATE2K (Homo sapiens, UniProt Q86VL8); conditions: 5 min, 10 µM, pH 7.4
[2] = target: T1, MATE1 (Homo sapiens, UniProt Q96FL8); conditions: 5 min, 10 µM, pH 7.4
T1 sequence (Q96FL8 1-570): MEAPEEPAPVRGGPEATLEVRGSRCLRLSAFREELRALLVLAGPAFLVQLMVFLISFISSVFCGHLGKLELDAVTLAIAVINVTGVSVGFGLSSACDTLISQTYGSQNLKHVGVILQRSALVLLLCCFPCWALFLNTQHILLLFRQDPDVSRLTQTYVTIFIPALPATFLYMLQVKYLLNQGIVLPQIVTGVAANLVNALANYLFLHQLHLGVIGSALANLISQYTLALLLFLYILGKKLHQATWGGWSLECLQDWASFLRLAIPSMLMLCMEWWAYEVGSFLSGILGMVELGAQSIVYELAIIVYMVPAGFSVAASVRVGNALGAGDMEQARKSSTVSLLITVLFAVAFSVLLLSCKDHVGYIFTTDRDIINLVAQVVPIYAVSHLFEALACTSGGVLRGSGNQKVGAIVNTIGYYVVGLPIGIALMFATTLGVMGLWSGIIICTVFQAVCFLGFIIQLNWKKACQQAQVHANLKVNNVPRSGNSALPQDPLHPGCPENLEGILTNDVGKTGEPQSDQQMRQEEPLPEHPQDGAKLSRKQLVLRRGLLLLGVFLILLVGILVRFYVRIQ

[3] = target: T2, OCT1 (Homo sapiens, UniProt O15245); conditions: read-out: IC50, Literature Report; substrate Metformin; HEK293 Cells; Sumito I, et al., JPET, 2011; cited from earlier work
T2 sequence (O15245 whole entry): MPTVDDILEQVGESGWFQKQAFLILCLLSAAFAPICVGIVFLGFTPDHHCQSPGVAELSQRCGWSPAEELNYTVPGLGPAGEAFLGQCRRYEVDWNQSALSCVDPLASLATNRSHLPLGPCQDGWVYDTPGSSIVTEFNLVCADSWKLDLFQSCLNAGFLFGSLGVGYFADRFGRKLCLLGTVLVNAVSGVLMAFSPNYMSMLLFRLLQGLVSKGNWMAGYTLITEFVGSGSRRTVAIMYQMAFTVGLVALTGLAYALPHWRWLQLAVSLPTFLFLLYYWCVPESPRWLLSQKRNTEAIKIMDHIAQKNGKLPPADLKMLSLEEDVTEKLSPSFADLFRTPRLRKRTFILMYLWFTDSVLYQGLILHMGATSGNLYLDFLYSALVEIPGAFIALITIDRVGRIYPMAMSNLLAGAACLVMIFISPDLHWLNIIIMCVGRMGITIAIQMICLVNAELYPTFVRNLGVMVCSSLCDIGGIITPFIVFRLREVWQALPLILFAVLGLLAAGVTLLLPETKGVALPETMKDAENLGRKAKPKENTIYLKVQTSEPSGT

[4] = target: T3, OCT2 (Homo sapiens, UniProt O15244)
T3 sequence (O15244 whole entry): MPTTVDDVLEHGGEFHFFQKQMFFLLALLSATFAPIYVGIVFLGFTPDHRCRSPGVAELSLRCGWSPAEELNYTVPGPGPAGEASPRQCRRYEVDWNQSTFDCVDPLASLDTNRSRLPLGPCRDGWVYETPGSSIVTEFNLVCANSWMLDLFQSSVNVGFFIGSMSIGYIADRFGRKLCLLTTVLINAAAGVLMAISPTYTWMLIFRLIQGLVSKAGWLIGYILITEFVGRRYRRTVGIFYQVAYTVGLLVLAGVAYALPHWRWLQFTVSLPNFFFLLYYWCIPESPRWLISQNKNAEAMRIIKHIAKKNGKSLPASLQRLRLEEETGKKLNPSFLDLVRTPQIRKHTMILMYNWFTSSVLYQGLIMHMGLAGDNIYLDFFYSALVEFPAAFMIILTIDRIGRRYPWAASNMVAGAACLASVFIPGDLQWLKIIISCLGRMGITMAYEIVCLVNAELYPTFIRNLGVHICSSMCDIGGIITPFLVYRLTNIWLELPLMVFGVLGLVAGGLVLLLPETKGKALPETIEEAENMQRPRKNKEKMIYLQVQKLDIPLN

[5] = target: T2, OCT1
[6] = target: T3, OCT2; conditions: read-out: IC50, Literature Report; substrate Metformin; HEK293 Cells; Sumito I, et al., JPET, 2011; cited from earlier work
[7] = target: T4, OAT3 (Homo sapiens, UniProt Q8TCC7); conditions: read-out: Km, Literature Report; HEK293 cells; Ueo H, et al., Biochem Pharmacol., 2005; cited from earlier work
T4 sequence (Q8TCC7 1-542): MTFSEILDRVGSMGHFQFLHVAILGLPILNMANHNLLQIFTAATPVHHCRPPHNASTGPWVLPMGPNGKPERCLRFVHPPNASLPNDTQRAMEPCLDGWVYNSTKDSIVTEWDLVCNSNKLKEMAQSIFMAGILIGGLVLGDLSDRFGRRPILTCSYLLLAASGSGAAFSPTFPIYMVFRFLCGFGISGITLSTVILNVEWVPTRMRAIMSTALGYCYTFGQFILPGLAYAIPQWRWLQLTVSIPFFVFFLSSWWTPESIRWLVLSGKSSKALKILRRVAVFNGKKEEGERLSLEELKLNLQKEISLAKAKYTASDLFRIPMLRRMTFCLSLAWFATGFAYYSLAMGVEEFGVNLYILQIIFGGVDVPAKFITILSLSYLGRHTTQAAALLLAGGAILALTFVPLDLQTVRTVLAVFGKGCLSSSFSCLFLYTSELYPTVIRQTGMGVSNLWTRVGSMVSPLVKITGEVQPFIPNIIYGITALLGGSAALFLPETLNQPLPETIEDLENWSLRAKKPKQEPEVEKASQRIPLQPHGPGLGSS

[8] = target: T4, OAT3; conditions: read-out: Km, SLC Transporter Cells; substrate 0.5 to 32 μM, incubation 1 min
[9] = target: T5, OATP1B1*15 (Homo sapiens, UniProt Q9Y6L6, N130D/V174A); conditions: for uptake reduced to: human
T5 sequence (Q9Y6L6 1-691 N130D/V174A): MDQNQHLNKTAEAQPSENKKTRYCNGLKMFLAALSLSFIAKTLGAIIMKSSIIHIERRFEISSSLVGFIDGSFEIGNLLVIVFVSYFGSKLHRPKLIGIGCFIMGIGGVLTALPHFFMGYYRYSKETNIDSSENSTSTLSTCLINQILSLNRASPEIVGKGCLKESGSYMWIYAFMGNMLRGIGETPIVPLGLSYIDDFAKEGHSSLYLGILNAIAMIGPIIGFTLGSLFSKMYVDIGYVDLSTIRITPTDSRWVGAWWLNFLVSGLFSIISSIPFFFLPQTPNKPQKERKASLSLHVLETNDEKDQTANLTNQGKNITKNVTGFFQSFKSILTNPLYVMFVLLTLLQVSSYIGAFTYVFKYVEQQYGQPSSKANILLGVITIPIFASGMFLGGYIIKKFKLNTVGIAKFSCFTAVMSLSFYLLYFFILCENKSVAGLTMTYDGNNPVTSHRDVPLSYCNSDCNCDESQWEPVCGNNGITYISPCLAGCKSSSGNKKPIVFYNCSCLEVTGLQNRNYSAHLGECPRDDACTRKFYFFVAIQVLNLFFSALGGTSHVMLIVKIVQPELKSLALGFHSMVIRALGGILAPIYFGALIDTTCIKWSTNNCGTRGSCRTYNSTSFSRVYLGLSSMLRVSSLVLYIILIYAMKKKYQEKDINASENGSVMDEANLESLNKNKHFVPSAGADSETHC

[10] = target: T6, rat Oatp1b2 (Rattus norvegicus, UniProt Q9QZX8)
T6 sequence (Q9QZX8 1-687): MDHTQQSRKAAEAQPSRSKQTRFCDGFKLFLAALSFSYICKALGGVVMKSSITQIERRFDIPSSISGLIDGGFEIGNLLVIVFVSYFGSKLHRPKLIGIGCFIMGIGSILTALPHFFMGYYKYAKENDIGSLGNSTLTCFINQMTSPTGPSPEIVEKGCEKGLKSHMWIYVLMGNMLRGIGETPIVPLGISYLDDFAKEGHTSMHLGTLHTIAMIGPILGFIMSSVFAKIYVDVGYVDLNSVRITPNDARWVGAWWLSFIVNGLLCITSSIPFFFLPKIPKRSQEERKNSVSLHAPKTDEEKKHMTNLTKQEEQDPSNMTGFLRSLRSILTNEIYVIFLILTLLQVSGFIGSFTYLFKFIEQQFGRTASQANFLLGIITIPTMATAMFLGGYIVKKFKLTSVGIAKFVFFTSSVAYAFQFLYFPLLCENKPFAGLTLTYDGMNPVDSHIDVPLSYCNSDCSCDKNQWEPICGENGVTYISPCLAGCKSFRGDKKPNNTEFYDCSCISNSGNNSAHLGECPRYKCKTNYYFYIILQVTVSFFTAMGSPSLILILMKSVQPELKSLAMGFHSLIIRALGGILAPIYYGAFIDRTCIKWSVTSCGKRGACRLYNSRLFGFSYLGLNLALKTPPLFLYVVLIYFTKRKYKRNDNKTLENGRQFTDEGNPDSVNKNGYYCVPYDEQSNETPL

[11] = system: dog Oatp1b4
[12] = target: T7, OATP1B1*5 (Homo sapiens, UniProt Q9Y6L6, V174A)
T7 sequence (Q9Y6L6 1-691 V174A): T5 sequence (Q9Y6L6 1-691 N130D/V174A) with D130N

[13] = system: monkey Oatp1b1
[14] = HEK-293 cells overexpressing the transporter

Chain of MATE2K (Q86VL8 1-566 isoform Q86VL8-3): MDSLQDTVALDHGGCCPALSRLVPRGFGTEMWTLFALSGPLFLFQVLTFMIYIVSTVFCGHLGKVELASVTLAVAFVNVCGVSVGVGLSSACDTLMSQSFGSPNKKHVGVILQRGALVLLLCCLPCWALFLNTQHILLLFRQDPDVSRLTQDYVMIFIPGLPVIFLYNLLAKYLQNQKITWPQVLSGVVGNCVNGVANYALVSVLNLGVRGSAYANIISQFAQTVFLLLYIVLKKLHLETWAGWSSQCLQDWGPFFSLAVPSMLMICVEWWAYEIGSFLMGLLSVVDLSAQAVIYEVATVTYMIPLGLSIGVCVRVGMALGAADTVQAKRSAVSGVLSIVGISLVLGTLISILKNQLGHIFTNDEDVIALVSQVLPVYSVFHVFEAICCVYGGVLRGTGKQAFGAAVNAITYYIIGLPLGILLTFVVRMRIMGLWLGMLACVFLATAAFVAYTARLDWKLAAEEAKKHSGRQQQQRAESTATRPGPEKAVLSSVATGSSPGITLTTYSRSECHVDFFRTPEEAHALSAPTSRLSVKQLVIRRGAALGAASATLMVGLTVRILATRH

CN(C)C(=N)N=C(N)N [Metformin]
UPTAKE ACTIVITY SLC transporter [1]: 33.5 pmol/mg/min
Uptake Ratio [1]: 6.5
UPTAKE ACTIVITY SLC transporter [2]: 71.4 pmol/mg/min
Uptake Ratio [2]: 12

CN/C(=N/CCSCc1nc[nH]c1C)NC#N [Cimetidine]
IC50 [3]: 104 µM
IC50 [4]: 195 µM
IC50 [5]: 230 µM
IC50 [6]: 124 µM

C[C@]12CC[C@@H]3c4ccc(OS(=O)(=O)O)cc4CC[C@H]3[C@@H]1CCC2=O [E3S, Estrone-3-sulfate]
Km [7]: 6.3 µM
Km [8]: 4 µM

CC(C)n1c(/C=C/C(O)CC(O)CC(=O)O)c(-c2ccc(F)cc2)c2ccccc21 (stereo not shown) [fluvastatin]
uptake reduced to [9]: less than 5%

CSCC[C@H](NC(=O)[C@H](Cc1ccc(OS(=O)(=O)O)cc1)NC(=O)[C@@H](N)CC(=O)O)C(=O)NCC(=O)N[C@@H](Cc1c[nH]c2ccccc12)C(=O)N[C@@H](CCSC)C(=O)N[C@@H](CC(=O)O)C(=O)N[C@@H](Cc1ccccc1)C(N)=O [CCK-8, cholecystokinin]
uptake of substrate (in words) [10, 14]: significant uptake
uptake of substrate (in words) [11, 14]: significant uptake

CC(C)c1c(C(=O)Nc2ccccc2)c(-c2ccccc2)c(-c2ccc(F)cc2)n1CC[C@@H](O)C[C@@H](O)CC(=O)O [atorvastatin]
uptake activity / transport compared to OATP1B1*1a cells (in words) [12]: Significant decrease in uptake activity
uptake activity / transport compared to OATP1B1*1a cells (in words) [9]: Significant decrease in uptake activity

CC(C)c1nc(N(C)S(C)(=O)=O)nc(-c2ccc(F)cc2)c1/C=C/[C@@H](O)C[C@@H](O)CC(=O)O [rosuvastatin]
uptake of substrate (in words) [10]: significant uptake
uptake of substrate (in words) [13]: significant uptake
uptake of substrate (in words) [11]: significant uptake

O=C(O)C[C@H](O)C[C@H](O)/C=C/c1c(C2CC2)nc2ccccc2c1-c1ccc(F)cc1 [pitavastatin]
uptake reduced to [9]: 40%
